Assay results taken from ChEMBL document CHEMBL1201862, “PubChem BioAssay data set” (2004).
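48-hour exposure; five concentrations; linearly interpolated endpoints. At the GI50, growth is halved.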 The source made the active and inactive calls. No stated cut-off is given here; in the data, active = GI50 up to about 1.1 µM and inactive = higher.

Assays:
Test in all cases: DTP human tumour cell line panel, 48 h
786-0 = system: 786-0
A498 = system: A498
A549 = system: A549
ACHN = system: ACHN
BT-549 = system: BT-549
CAKI-1 = system: CAKI-1
CCRF-CEM = system: CCRF-CEM
COLO 205 = system: COLO 205
DU-145 = system: DU-145
EKVX = system: EKVX
HCT-116 = system: HCT-116
HCT-15 = system: HCT-15
HL-60 = system: HL-60
HOP-62 = system: HOP-62
HOP-92 = system: HOP-92
HT-29 = system: HT-29
Hs-578T = system: Hs-578T
IGROV-1 = system: IGROV-1
K562 = system: K562
KM12 = system: KM12
LOX IMVI = system: LOX IMVI
M14 = system: M14
MCF7 = system: MCF7
MDA-MB-231 = system: MDA-MB-231
MDA-MB-435 = system: MDA-MB-435
MDA-N = system: MDA-N
MOLT-4 = system: MOLT-4
Malme-3M = system: Malme-3M
NCI-H226 = system: NCI-H226
NCI-H23 = system: NCI-H23
NCI-H460 = system: NCI-H460
NCI-H522 = system: NCI-H522
NCI/ADR-RES = system: NCI/ADR-RES
OVCAR-3 = system: OVCAR-3
OVCAR-4 = system: OVCAR-4
OVCAR-5 = system: OVCAR-5
OVCAR-8 = system: OVCAR-8
PC-3 = system: PC-3
RPMI-8226 = system: RPMI-8226
RXF 393 = system: RXF 393
SF-268 = system: SF-268
SF-295 = system: SF-295
SF-539 = system: SF-539
SK-MEL-28 = system: SK-MEL-28
SK-MEL-2 = system: SK-MEL-2
SK-MEL-5 = system: SK-MEL-5
SK-OV-3 = system: SK-OV-3
SN12C = system: SN12C
SNB-19 = system: SNB-19
SR = system: SR
SW-620 = system: SW-620
T47D = system: T47D
TK-10 = system: TK-10
U-251 = system: U-251
UACC-257 = system: UACC-257
UACC-62 = system: UACC-62
UO-31 = system: UO-31
SNB-75 = system: SNB-75

N=C(N)N/N=C/c1c(-c2ccc(N)cc2)nc2sccn12
GI50 (786-0): 23.9 µM (inactive) | GI50 (A498): 25.9 µM (inactive) | GI50 (A549): 21.2 µM (inactive) | GI50 (ACHN): 26.9 µM (inactive) | GI50 (BT-549): 35.5 µM (inactive) | GI50 (CAKI-1): 33.7 µM (inactive) | GI50 (CCRF-CEM): 26.8 µM (inactive) | GI50 (COLO 205): 23.4 µM (inactive) | GI50 (DU-145): 17.5 µM (inactive) | GI50 (EKVX): 24.7 µM (inactive) | GI50 (HCT-116): 23.3 µM (inactive) | GI50 (HCT-15): 36.9 µM | GI50 (HL-60): 16.2 µM (inactive) | GI50 (HOP-62): 26.5 µM (inactive) | GI50 (HOP-92): > 100 µM (inactive) | GI50 (HT-29): 22.7 µM (inactive) | GI50 (Hs-578T): 31.3 µM (inactive) | GI50 (IGROV-1): 60.8 µM (inactive) | GI50 (K562): 26.1 µM (inactive) | GI50 (KM12): 21.2 µM (inactive) | GI50 (LOX IMVI): 32.9 µM (inactive) | GI50 (M14): 24.2 µM (inactive) | GI50 (MCF7): 31.6 µM (inactive) | GI50 (MDA-MB-231): 21 µM (inactive) | GI50 (MDA-MB-435): 26.5 µM (inactive) | GI50 (MDA-N): 24.5 µM (inactive) | GI50 (MOLT-4): 25.4 µM (inactive) | GI50 (Malme-3M): 61 µM (inactive) | GI50 (NCI-H226): > 100 µM (inactive) | GI50 (NCI-H23): 28.1 µM (inactive) | GI50 (NCI-H460): 26.4 µM (inactive) | GI50 (NCI-H522): 26.5 µM (inactive) | GI50 (NCI/ADR-RES): > 100 µM (inactive) | GI50 (OVCAR-3): 21.8 µM (inactive) | GI50 (OVCAR-4): 35.3 µM (inactive) | GI50 (OVCAR-5): 21.4 µM (inactive) | GI50 (OVCAR-8): 34.5 µM (inactive) | GI50 (PC-3): 22.5 µM (inactive) | GI50 (RPMI-8226): 30.8 µM (inactive) | GI50 (RXF 393): 18.2 µM (inactive) | GI50 (SF-268): 34.7 µM (inactive) | GI50 (SF-295): 23.4 µM (inactive) | GI50 (SF-539): 26.9 µM (inactive) | GI50 (SK-MEL-28): > 100 µM (inactive) | GI50 (SK-MEL-2): 30.5 µM (inactive) | GI50 (SK-MEL-5): > 100 µM (inactive) | GI50 (SK-OV-3): 24.8 µM (inactive) | GI50 (SN12C): 21.3 µM (inactive) | GI50 (SNB-19): 23.2 µM (inactive) | GI50 (SR): 33.7 µM (inactive) | GI50 (SW-620): 22.8 µM (inactive) | GI50 (T47D): 21.1 µM (inactive) | GI50 (TK-10): 20.9 µM (inactive) | GI50 (U-251): 25.4 µM (inactive) | GI50 (UACC-257): > 100 µM (inactive) | GI50 (UACC-62): > 100 µM (inactive) | GI50 (UO-31): 20 µM (inactive)

COC(=O)c1cnn2c1n[n+]([O-])c1ccccc12
GI50 (786-0): > 100 µM (inactive) | GI50 (A498): 30.3 µM (inactive) | GI50 (A549): > 100 µM (inactive) | GI50 (ACHN): > 100 µM (inactive) | GI50 (BT-549): > 100 µM (inactive) | GI50 (CAKI-1): > 100 µM (inactive) | GI50 (CCRF-CEM): > 100 µM (inactive) | GI50 (COLO 205): 85.5 µM (inactive) | GI50 (DU-145): > 100 µM (inactive) | GI50 (EKVX): > 100 µM (inactive) | GI50 (HCT-116): > 100 µM (inactive) | GI50 (HL-60): 68.5 µM (inactive) | GI50 (HOP-62): > 100 µM (inactive) | GI50 (HOP-92): > 100 µM (inactive) | GI50 (HT-29): > 100 µM (inactive) | GI50 (Hs-578T): > 100 µM (inactive) | GI50 (IGROV-1): > 100 µM (inactive) | GI50 (K562): > 100 µM (inactive) | GI50 (KM12): > 100 µM (inactive) | GI50 (LOX IMVI): > 100 µM (inactive) | GI50 (M14): > 100 µM (inactive) | GI50 (MCF7): > 100 µM (inactive) | GI50 (MDA-MB-231): > 100 µM (inactive) | GI50 (MDA-MB-435): > 100 µM (inactive) | GI50 (MDA-N): > 100 µM (inactive) | GI50 (MOLT-4): > 100 µM (inactive) | GI50 (Malme-3M): > 100 µM (inactive) | GI50 (NCI-H226): > 100 µM (inactive) | GI50 (NCI-H23): 57 µM (inactive) | GI50 (NCI-H522): > 100 µM (inactive) | GI50 (NCI/ADR-RES): > 100 µM (inactive) | GI50 (OVCAR-3): 25.9 µM (inactive) | GI50 (OVCAR-5): > 100 µM (inactive) | GI50 (OVCAR-8): > 100 µM (inactive) | GI50 (PC-3): > 100 µM (inactive) | GI50 (RPMI-8226): > 100 µM (inactive) | GI50 (RXF 393): > 100 µM (inactive) | GI50 (SF-268): > 100 µM (inactive) | GI50 (SF-295): > 100 µM (inactive) | GI50 (SK-MEL-28): > 100 µM (inactive) | GI50 (SK-MEL-2): > 100 µM (inactive) | GI50 (SK-MEL-5): 26.9 µM (inactive) | GI50 (SK-OV-3): > 100 µM (inactive) | GI50 (SN12C): > 100 µM (inactive) | GI50 (SNB-75): > 100 µM (inactive) | GI50 (SR): > 100 µM (inactive) | GI50 (SW-620): > 100 µM (inactive) | GI50 (T47D): > 100 µM (inactive) | GI50 (TK-10): > 100 µM (inactive) | GI50 (U-251): > 100 µM (inactive) | GI50 (UACC-257): > 100 µM (inactive) | GI50 (UACC-62): > 100 µM (inactive) | GI50 (UO-31): 37.4 µM (inactive)

CC1CCCC2(CC[N+](C)(CCC[N+](C)(C)C)CC2)C1 (stereo unspecified)
GI50 (786-0): > 100 µM (inactive) | GI50 (A498): > 100 µM (inactive) | GI50 (A549): > 100 µM (inactive) | GI50 (ACHN): > 100 µM (inactive) | GI50 (BT-549): > 100 µM (inactive) | GI50 (CAKI-1): > 100 µM (inactive) | GI50 (COLO 205): > 100 µM (inactive) | GI50 (DU-145): > 100 µM (inactive) | GI50 (EKVX): > 100 µM (inactive) | GI50 (HCT-116): > 100 µM (inactive) | GI50 (HCT-15): > 100 µM | GI50 (HL-60): 5.48 µM (inactive) | GI50 (HOP-62): > 100 µM (inactive) | GI50 (HOP-92): > 100 µM (inactive) | GI50 (HT-29): > 100 µM (inactive) | GI50 (Hs-578T): > 100 µM (inactive) | GI50 (IGROV-1): > 100 µM (inactive) | GI50 (K562): > 100 µM (inactive) | GI50 (KM12): > 100 µM (inactive) | GI50 (LOX IMVI): > 100 µM (inactive) | GI50 (M14): > 100 µM (inactive) | GI50 (MCF7): > 100 µM (inactive) | GI50 (MDA-MB-231): > 100 µM (inactive) | GI50 (MDA-MB-435): > 100 µM (inactive) | GI50 (MDA-N): > 100 µM (inactive) | GI50 (MOLT-4): > 100 µM (inactive) | GI50 (Malme-3M): > 100 µM (inactive) | GI50 (NCI-H226): > 100 µM (inactive) | GI50 (NCI-H460): > 100 µM (inactive) | GI50 (NCI-H522): > 100 µM (inactive) | GI50 (NCI/ADR-RES): > 100 µM (inactive) | GI50 (OVCAR-3): > 100 µM (inactive) | GI50 (OVCAR-4): > 100 µM (inactive) | GI50 (OVCAR-5): > 100 µM (inactive) | GI50 (OVCAR-8): > 100 µM (inactive) | GI50 (PC-3): > 100 µM (inactive) | GI50 (RPMI-8226): > 100 µM (inactive) | GI50 (RXF 393): > 100 µM (inactive) | GI50 (SF-268): > 100 µM (inactive) | GI50 (SF-295): > 100 µM (inactive) | GI50 (SF-539): > 100 µM (inactive) | GI50 (SK-MEL-28): > 100 µM (inactive) | GI50 (SK-MEL-2): > 100 µM (inactive) | GI50 (SK-MEL-5): > 100 µM (inactive) | GI50 (SK-OV-3): > 100 µM (inactive) | GI50 (SN12C): > 100 µM (inactive) | GI50 (SNB-19): > 100 µM (inactive) | GI50 (SNB-75): > 100 µM (inactive) | GI50 (SR): > 100 µM (inactive) | GI50 (SW-620): > 100 µM (inactive) | GI50 (T47D): > 100 µM (inactive) | GI50 (TK-10): > 100 µM (inactive) | GI50 (U-251): > 100 µM (inactive) | GI50 (UACC-257): > 100 µM (inactive) | GI50 (UACC-62): > 100 µM (inactive) | GI50 (UO-31): > 100 µM (inactive)
